Experimental data: PMC5575474, “Structure‐Enabled Discovery of a Stapled Peptide Inhibitor to Target the Oncogenic Transcriptional Repressor TLE1” (Chemistry (Weinheim an Der Bergstrasse, Germany), 2017)
Read-outs that look alike come from different tables or passages of the source. One block for each compound: values may come before it. No end group written: not given here.

Columns and labels:
[1] = target: T1, human TLE1 443-770 (TLE1 WD40 domain) (Homo sapiens, UniProt Q04724); test: Isothermal titration calorimetry (ITC), peptide–TLE1 binding; settings: for Kd / affinity relative to unconstrained (acyclic) peptide: cyclic vs acyclic FWRPW
T1 construct: the TLE1 WD40 domain (TLE1 residues 443–770); His6 (N, cleaved yes); made in house; host or cells: Sf9 insect cells (baculovirus, pFastBacHTb)
Excerpt: (§1) We next investigated the binding of this macrocycle, as well as acyclic MWRPW and FWRPW peptides, to TLE1. We used two orthogonal binding assays, the thermal shift assay10 and isothermal titration calorimetry (ITC),11 to test binding of 18 and the linear peptides to the TLE1 WD40 domain (TLE1 residues 443–770).
This was initially more pronounced for FWRPW and 18, but also recognisable for the MWRPW peptide (see Figure S1 in the Supporting Information). We repeated the MWRPW titration at slightly higher protein and peptide concentrations to achieve a higher enthalpy signal, and therefore, better resolution of the titration event. Under these conditions, we also observed a clear biphasic curve (Figure 3). The biphasic curves are indicative of two binding events and we calculated the thermodynamic data for both (Table 2).
Figure 3 Top: ITC measurements of peptide–TLE1 binding interactions. Data fitting to a two‐site independent binding model are shown; integrated heats are shown in the inset. Bottom: Histograms showing ΔG, ΔH, and −TΔS. The thermodynamic values are also presented in Table 1. a) MWRPW–TLE1 binding, n=1. Experiment performed with TLE1 (40 μM) and MWRPW peptide (420 μM). b) FWRPW–TLE1 binding, n=2. Experiment performed with TLE1 (30 μM), FWRPW peptide (240 μM), and then repeated with TLE1 (24 μM), FWRPW peptide (180 μM). Histograms represent averaged values; error bars denote SD. c) 18–TLE1 binding, n=2. Experiment performed with TLE1 (30 μM), 18 (200 μM) and then repeated with TLE1 (30 μM), 18 (180 μM). Histograms represent averaged values; error bars denote SD. […]
(§2) Cloning, Expression and Purification of humanTLE1 443- 770.
(§3) The construct encoding the sequence for human TLE1 443- 770 was generated ac c or ding Laurence Pearl’s laboratory procedure. Brief ly, the C-terminal region of human TLE1 (GenBank accession number M99435) encoding amino acids 443– 770 was PCR amplif ied and cloned into pFastBacHTb (GIBCO) in-frame with the N-terminal His6 tag sequence.
(§4) Starting from this construct we generated recombinant baculovirus using the Bac-to-Bac® Baculovirus Expression System (Thermo Fisher Scientif ic). For protein production, Sf9 insect cells were grown in sf -900 II SFM media (Thermo Fisher Scientific) to a cell density of around 2 × 10^6 cells per milliliter and inf ected with 20 μL of virus per 107cells. Inf ected cell cultures were harvested 3 days post-inf ection.
(§5) Cell pellets were resuspended in 6 volumes of lysis buffer (50 mM Tris pH 7.5, 500 mM NaCl, 1 mM MgCl) containing 1× complete EDTA-free protease inhibitors and 25 U/mL benzonase nuclease. The resuspended cells were lysed by sonication. Following […]
(§6) centrifugation, the supernatant was purified over 2x HiTrap talon crude columns (Cobalt - IMAC, GE). Columns were washed with 10m M Imidazole and then the protein was eluted in […]
(§7) The Talon eluate was incubated overnight at 4 °C with TEV protease to cleave the 6xHis tag and then re- loaded on talon column: the unbound wash contains the cleaved hTLE1 443- […]
(§8) The protein was subsequently purif ied over a Superdex 75 16/60 column that was equilibrated in 50 mM Hepes pH 7.5 + 250 mM naCl + 1 mM TCEP.
(§9) Selected f ractions were pooled, concentrated to 8 mg/mL and stored at - 80 °C. The protein was stable in these conditions f or up to three months.
(§10) Protein concentration was measured using an ND-1000 UV spectrophotometer (Nanodrop Technologies Inc., DE., USA). […]
1-2 days at 20 ◦C. Some crystals were transf erred to hanging drop (vapour diffusion) plates with the wells containing precipitant solution (PEG 8000 (22%), 100mM Na cacodylate, 100 mM Ca(OAc)2) and the drops containing the same precipitant solution supplemented with 1.0 or 2.5 mM peptide and a resultant final DMSO concentration of 1.0% or 2.5%, respectively. These crystals were soaked for around 5 h at 20 °C. Apo or peptide- s oak ed crystals were harvested, briefly transferred to cryprotectant (either paratone- N or a buffer […]

[2] = target: T1, human TLE1 443-770 (TLE1 WD40 domain); test: Thermal shift assay (TSA, ΔTm); type: binding; settings: 6 μM human TLE1 443-770, 25 mM Tris pH7.5, 125 mM NaCl, 1 mM DTT, 0.0002% Tween20, 3x SYPRO Orange, 10 °C to 95 °C, 0.5 °/min, mean of triplicate
Protocol: as §1
Figure 2 ΔT m plot of peptide–hTLE1 443–770 interactions in thermal shift experiments. All measurements were carried out in triplicate and the points are reported as mean+standard deviation (SD). […]
as §2, §3, §4, §5, §6, §7, §8, §9, §10
1-2 days at 20 ◦C. Some crystals were transf erred to hanging drop (vapour diffusion) plates with the wells containing precipitant solution (PEG 8000 (22%), 100mM Na cacodylate, 100 mM Ca(OAc)2) and the drops containing the same precipitant solution supplemented with 1.0 or 2.5 mM peptide and a resultant final DMSO concentration of 1.0% or 2.5%, respectively. These crystals were soaked for around 5 h at 20 °C. Apo or peptide- s oak ed crystals were harvested, briefly transferred to cryprotectant (either paratone- N or a buffer containing ethylene glycol (40%), PEG 8000 […], 100 mM sodium cacodylate, 100 m M Ca(OAc)2) and f lash frozen in liquid nitrogen.
X-Ray data we r e collected at the Diamond Light Source, Oxford, UK on beamline I04.
Crystals belonged to the space group P2 1 and diffracted to between 1.6 and 2.9 Å. Dat a we r e integrated and merged using MOSFLM[4a,b] and AI MLESS.[4c] The structures were solved by molecular replacement using PHASER, [5] with either 2CE9 or our refined apo structure as the molecular replacement model with ligands and water removed. T he structures were manually rebuilt in COOT [6] and refined with BUSTER[7] in iterative cycles.
Ligand restraints f or the constrained peptide were generated with Grade[8] and Mogul.[9] T he quality of the structures was assessed with MOLPROBITY.[10]
Linear, unmodified peptides FW RPW and MWRPW were purchased from Cambridge Peptides as lyophilized powder. The peptides were then reconstituted in 1:1 mixture of DMSO and H2O as 10 mM stocks and stored at -80 °C. […]

[3] = target: T1, human TLE1 443-770 (TLE1 WD40 domain); test: Isothermal titration calorimetry (ITC), peptide–TLE1 binding; settings: one-site independent binding model; TLE1 30 μM, peptide 350 μM; 25 °C, 50 mM Hepes pH7.5, 250 mM NaCl; mean ± SD, n = 2 (Table S1)
TLE1 WDR domain = settings: cited from earlier work
Excerpt: As discussed in more detail below, the bioactive conformation of this peptide is characterised by a compactly folded core formed by the central three amino acids. This compact core engages in extensive interactions with the WDR1 domain and positions key amino acid side chains such that they can form add ...

[4] = first binding event, two-site independent binding model, 25 °C, pH7.5, MWRPW n=1, FWRPW and 18 n=2, mean ± SD
[5] = second binding event, two-site independent binding model, 25 °C, pH7.5, MWRPW n=1, FWRPW and 18 n=2, mean ± SD

T1 sequence (Q04724 443-770): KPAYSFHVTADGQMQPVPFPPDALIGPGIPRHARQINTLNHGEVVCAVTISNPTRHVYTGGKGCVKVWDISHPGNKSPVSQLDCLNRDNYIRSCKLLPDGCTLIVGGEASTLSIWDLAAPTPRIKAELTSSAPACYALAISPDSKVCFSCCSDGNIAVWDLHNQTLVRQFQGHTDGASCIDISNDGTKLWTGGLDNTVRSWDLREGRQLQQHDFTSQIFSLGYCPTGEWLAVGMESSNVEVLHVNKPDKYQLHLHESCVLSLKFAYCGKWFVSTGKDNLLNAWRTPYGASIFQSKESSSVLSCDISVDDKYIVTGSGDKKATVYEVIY

Kd / affinity relative to unconstrained (acyclic) peptide ([1]; listed as cycFWRPW): approximately five‐fold higher
Kd ([1]; second binding event, two-site independent binding model, 25 °C, 50 mM Hepes pH7.5, 250 mM NaCl, 1 mM TCEP, 0.05% Tween 20, MWRPW n=1 (TLE1 40 μM, peptide 420 μM), FWRPW n=2 (TLE1 30/24 μM, peptide 240/180 μM), 18 n=2 (TLE1 30 μM, peptide 200/180 μM), read-out: Kd2): 522 ± 39.6 nM
ΔTm ([2]; peptide 100 μM): 8.4 °C
ΔTm ([2]; peptide 200 μM): 7.5 °C
Compound: N=C(N)NCCC[C@@H]1NC(=O)[C@@H](NC(=O)[C@@H](N)Cc2ccccc2)Cc2cn(c3ccccc23)CCCC[C@@]2(C(=O)N[C@@H](Cc3c[nH]c4ccccc34)C(=O)O)CCCN2C1=O [compound 18]
Kd / affinity relative to unconstrained (acyclic) peptide [1]: approximately six‐fold lower affinity than that of the acyclic peptide

N1 ([1]; first binding event, two-site independent binding model, 25 °C, 50 mM Hepes pH7.5, 250 mM NaCl, 1 mM TCEP, 0.05% Tween 20, MWRPW n=1 (TLE1 40 μM, peptide 420 μM), FWRPW n=2 (TLE1 30/24 μM, peptide 240/180 μM), 18 n=2 (TLE1 30 μM, peptide 200/180 μM)): 0.18±0.002
ΔH1 [1, 4]: -20.5 ± 3.7 kcal/mol
−TΔS1 [1, 4]: 9.2 ± 3.8 kcal/mol
fold more potent binding than MWRPW ([1]; second binding event (Kd2)): ~10 fold
N2 ([1]; second binding event, two-site independent binding model, 25 °C, 50 mM Hepes pH7.5, 250 mM NaCl, 1 mM TCEP, 0.05% Tween 20, MWRPW n=1, FWRPW and 18 n=2): 0.7±0.004
ΔH2 [1, 5]: -14.6 ± 0 kcal/mol
−TΔS2 [1, 5]: 4.6 ± 0.2 kcal/mol
ΔTm ([2]; peptide 100 μM): 9.4 °C
ΔTm ([2]; peptide 200 μM): 10.1 °C
Compound: FWRPW [linear, unmodified peptide purchased from Cambridge Peptides; acyclic counterpart of 18]

Kd [3]: 704 ± 14 nM
ΔTm ([2]; peptide 100 μM): 6.3 °C
ΔTm ([2]; peptide 200 μM): 6.9 °C
Compound: MWRPW [MWRPW, reference compound]

Compound: SMWRPW [acyclic design template (pdb code 2CE9)]
Kd (TLE1 WDR domain): 1000 nM
